Assay results: patent US20220296604A1, “INDOLE COMPOUNDS AS MODULATORS OF RAGE ACTIVITY AND USES THEREOF” (NEW YORK UNIVERSITY, priority 2019, published 2022)
pKd: −log10 of the molar value.

Target: T1, RAGE tail (Homo sapiens, UniProt Q15109)
T1 construct: The cytoplasmic domain of RAGE, C terminal RAGE or ctRAGE (RAGE tail) is critical for RAGE-dependent signal transduction
T1 sequence (Q15109 364-404 limits assumed): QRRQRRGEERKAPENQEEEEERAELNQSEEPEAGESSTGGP
Experiment: RAGE tail fluorescence titration (fluorescence quenching), Kd determination
Settings: compound titrated into 100 nM solution of RAGE tail, NB = binding not detected
Procedure: Binding affinities of small molecules for either CT-RAGE or FH1 are determined by performing fluorescence titrations to generate binding isotherms and standard SPR experiments. […]
Compound D-IIIa was titrated into 100 nM solution of RAGE tail. Fluorescence quenching was used to determine binding. R^2 quality factor of the fitting was 0.94 (FIG. 1).
Compound D-IIIb was titrated into 100 nM solution of RAGE tail. Fluorescence quenching was used to determine binding. R^2 quality factor of the fitting was 0.97 (FIG. 2).
Compound D-IIIc was titrated into 100 nM solution of RAGE tail. Fluorescence quenching was used to determine binding. R^2 quality factor of the fitting was 0.98 (FIG. 3).
Compound D-IIId was titrated into 100 nM solution of RAGE tail. Fluorescence quenching was used to determine binding. R^2 quality factor of the fitting was 0.99 (FIG. 4).
Compound D-IIIe was titrated into 100 nM solution of RAGE tail. Fluorescence quenching was used to determine binding. R^2 quality factor of the fitting was 0.98 (FIG. 5).
Compound D-IIIi was titrated into 100 nM solution of RAGE tail. Fluorescence quenching was used to determine binding. R^2 quality factor of the fitting was 0.90 (FIG. 6).
Compound D-IIIk was titrated into 100 nM solution of RAGE tail. Fluorescence quenching was used to determine binding. R^2 quality factor of the fitting was 0.89 (FIG. 7).
Compound D-IIIq was titrated into 100 nM solution of RAGE tail. Fluorescence quenching was used to determine binding. R^2 quality factor of the fitting was 0.82 (FIG. 8).
Compound D-IIIv was titrated into 100 nM solution of RAGE tail. Fluorescence quenching was used to determine binding. R^2 quality factor of the fitting was 0.93 (FIG. 9).
Compound D-IIIw was titrated into 100 nM solution of RAGE tail. Fluorescence quenching was used to determine binding. R^2 quality factor of the fitting was 0.94 (FIG. 10).
Compound D-IVa was titrated into 100 nM solution of RAGE tail. Fluorescence quenching was used to determine binding. R^2 quality factor of the fitting was 0.94 (FIG. 11).
Compound D-IVb was titrated into 100 nM solution of RAGE tail. Fluorescence quenching was used to determine binding. R^2 quality factor of the fitting was 0.93 (FIG. 12).
Compound D-IVc was titrated into 100 nM solution of RAGE tail. Fluorescence quenching was used to determine binding. R^2 quality factor of the fitting was 0.92 (FIG. 13).
Compound D-IVd was titrated into 100 nM solution of RAGE tail. Fluorescence quenching was used to determine binding. R^2 quality factor of the fitting was 0.94 (FIG. 14).
Compound D-IVe was titrated into 100 nM solution of RAGE tail. Fluorescence quenching was used to determine binding. R^2 quality factor of the fitting was 0.93 (FIG. 15).
Compound D-IVf was titrated into 100 nM solution of RAGE tail. Fluorescence quenching was used to determine binding. R^2 quality factor of the fitting was 0.95 (FIG. 16).
Compound D-IVg was titrated into 100 nM solution of RAGE tail. Fluorescence quenching was used to determine binding. R^2 quality factor of the fitting was 0.89 (FIG. 17).
Compound D-IVh was titrated into 100 nM solution of RAGE tail. Fluorescence quenching was used to determine binding. R^2 quality factor of the fitting was 0.93 (FIG. 18).

| Structure (SMILES) | pKd |
| --- | --- |
| Cc1c(C)n(CC(O)CN2CCOCC2)c2ccc(F)cc12 [Compound D-IIIa, 1-(5-fluoro-2,3-dimethyl-1H-indol-1-yl)-3-morpholinopropan-2-ol] | 7.09 |
| Cc1c(C)n(CC(O)CN2CCOCC2)c2cc(F)ccc12 [Compound D-IIId] | 7.26 |
| Cc1c(CC(O)CN2CCOCC2)c2ccccc2n1C [Compound D-IIIe, 1-(1,2-dimethyl-1H-indol-3-yl)-3-morpholinopropan-2-ol] | 7.70 |
| Cc1c(C)n(CC(CN2CCOCC2)NC(=O)C(C)C)c2ccccc12 [Compound D-IIIk] | 7.21 |
| Cc1c(CC(O)CN2CCOCC2)c2ccc(F)cc2n1C [Compound D-IIIv] | 7.85 |
| Cc1c(C)n(CC(CC#N)CN2CCOCC2)c2ccccc12 [Compound D-IIIw] | 8.37 |
| OC(CN1CCCCC1)Cn1c2c(c3ccccc31)CCCC2 [Compound D-IVa] | 7.14 |
| O=C(O)C1CCCN(CC(O)Cn2c3c(c4ccccc42)CCCC3)C1 [Compound D-IVc] | 7.74 |

The remaining compounds from weak to strong by pKd, led by results:

| pKd | Structure (SMILES) |
| --- | --- |
| 7.92 | Cc1c(C)n(CC(C#N)CN2CCCC(C(=O)O)C2)c2ccccc12 [Compound D-IVd] |
| 7.92 | CC(=O)NC(CN1CCCC(C(N)=O)C1)Cn1c(C)c(C)c2ccccc21 [Compound D-IVg] |
| 7.96 | Cc1c(CC(O)CN2CCOCC2)c2ccccc2n1C(C)C [Compound D-IIIq] |
| 7.96 | NC(=O)C1CCCN(CC(O)Cn2c3c(c4ccccc42)CCCC3)C1 [Compound D-IVb] |
| 8.05 | CC(=O)NC(CN1CCOCC1)Cn1c(C)c(C)c2ccccc21 [Compound D-IIIc, N-(1-(2,3-dimethyl-1H-indol-1-yl)-3-morphohnopropan-2-yl)acetamide] |
| 8.05 | CC(=O)NC(CN1CCOCC1)Cn1c(C)c(C)c2cc(F)ccc21 [Compound D-IIIi] |
| 8.11 | Cc1c(CC(O)CN2CCCC(C(=O)O)C2)c2ccccc2n1C [Compound D-IVh] |
| 8.34 | CC(=O)NC(CN1CCCC(C(=O)O)C1)Cn1c(C)c(C)c2ccccc21 [Compound D-IVf] |
| 8.40 | Cc1c(C)n(CC(C#N)CN2CCOCC2)c2ccccc12 [Compound D-IIIb] |
| 8.59 | Cc1c(C)n(CC(C#N)CN2CCCC(C(N)=O)C2)c2ccccc12 [Compound D-IVe] |
